Results on 1 molecule are retold here after ChEMBL document CHEMBL3872220, “Amphiphilic xanthones as a potent chemical entity of anti-mycobacterial agents with membrane-targeting properties” (Eur J Med Chem, 2016).

In the first test the test system is Mycobacterium tuberculosis variant bovis. The experiment in a line: Antimycobacterial activity against Mycobacterium bovis BCG ATCC 35734 assessed as ATP leakage by measuring extracellular ATP at 2 times MIC measured at 9 hrs post dose by luciferase reporter gene assay. In kind it is functional, Mycobacterium tuberculosis variant bovis BCG.
In the case of `COc1c(OCCCCN2CCOCC2)cc2oc3cc(OCCCCN4CCOCC4)c(CC=C(C)C)c(O)c3c(=O)c2c1CC=C(C)C`, the Activity is reported as 33.1%.

Another test shares this test system. In words: Antimycobacterial activity against Mycobacterium bovis BCG ATCC 35734 assessed as ATP leakage by measuring intracellular ATP at 4 times MIC measured at 24 hrs post dose by luciferase reporter gene assay. In kind it is functional, Mycobacterium tuberculosis variant bovis BCG.
Consider `COc1c(OCCCCN2CCOCC2)cc2oc3cc(OCCCCN4CCOCC4)c(CC=C(C)C)c(O)c3c(=O)c2c1CC=C(C)C`, for which the Activity is 31.5%.

A further test has the same test system. The experiment in a line: Antimycobacterial activity against Mycobacterium bovis BCG ATCC 35734 assessed as ATP leakage by measuring intracellular ATP at 4 times MIC measured immediatey after addition of compounds by luciferase reporter gene assay. It is filed as functional, Mycobacterium tuberculosis variant bovis BCG.
Regarding `COc1c(OCCCCN2CCOCC2)cc2oc3cc(OCCCCN4CCOCC4)c(CC=C(C)C)c(O)c3c(=O)c2c1CC=C(C)C`, the Activity is given as 85.7%.

The next test shares this test system. The experiment in a line: Antimycobacterial activity against Mycobacterium bovis BCG ATCC 35734 assessed as ATP leakage by measuring extracellular ATP at 1 MIC measured at 1 hr post dose by luciferase reporter gene assay. It is filed as functional, Mycobacterium tuberculosis variant bovis BCG.
`COc1c(OCCCCN2CCOCC2)cc2oc3cc(OCCCCN4CCOCC4)c(CC=C(C)C)c(O)c3c(=O)c2c1CC=C(C)C`: the Activity came to 11.5%.

For a further test the test system is unchanged. In words: Antimycobacterial activity against Mycobacterium bovis BCG ATCC 35734 assessed as ATP leakage by measuring intracellular ATP at 4 times MIC measured at 1 hr post dose by luciferase reporter gene assay. It is filed as functional, Mycobacterium tuberculosis variant bovis BCG.
Take `COc1c(OCCCCN2CCOCC2)cc2oc3cc(OCCCCN4CCOCC4)c(CC=C(C)C)c(O)c3c(=O)c2c1CC=C(C)C`: the Activity was 74.6%.

A further test has the same test system. In words: Antimycobacterial activity against Mycobacterium bovis BCG ATCC 35734 assessed as ATP leakage by measuring intracellular ATP at 1 MIC measured at 1 hr post dose by luciferase reporter gene assay. It is filed as functional, Mycobacterium tuberculosis variant bovis BCG.
Regarding `COc1c(OCCCCN2CCOCC2)cc2oc3cc(OCCCCN4CCOCC4)c(CC=C(C)C)c(O)c3c(=O)c2c1CC=C(C)C`, the Activity is 88.5%.

Another test has the same test system. In words: Antimycobacterial activity against Mycobacterium bovis BCG ATCC 35734 assessed as ATP leakage by measuring intracellular ATP at 0.5 times MIC measured at 24 hrs post dose by luciferase reporter gene assay. In kind it is functional, Mycobacterium tuberculosis variant bovis BCG.
In the case of `COc1c(OCCCCN2CCOCC2)cc2oc3cc(OCCCCN4CCOCC4)c(CC=C(C)C)c(O)c3c(=O)c2c1CC=C(C)C`, the Activity is recorded as 95.2%.

For a further test the test system is unchanged. In words: Antimycobacterial activity against Mycobacterium bovis BCG ATCC 35734 assessed as ATP leakage by measuring intracellular ATP at 4 times MIC measured at 9 hrs post dose by luciferase reporter gene assay. In kind it is functional, Mycobacterium tuberculosis variant bovis BCG.
Turning to `COc1c(OCCCCN2CCOCC2)cc2oc3cc(OCCCCN4CCOCC4)c(CC=C(C)C)c(O)c3c(=O)c2c1CC=C(C)C`, the Activity came to 41.6%.

Another test has the same test system. In words: Induction of membrane integrity impairment in Mycobacterium bovis BCG ATCC 35734 assessed as pH shift at 60 uM measured after 3 hrs by CMFDA dye based fluorescence spectroscopic method relative to control. It is filed as functional, Mycobacterium tuberculosis variant bovis BCG.
`COc1c(OCCCCN2CCOCC2)cc2oc3cc(OCCCCN4CCOCC4)c(CC=C(C)C)c(O)c3c(=O)c2c1CC=C(C)C`: the Activity is reported as 30%.

For a further test the test system is unchanged. In words: Antimycobacterial activity against Mycobacterium bovis BCG ATCC 35734 assessed as ATP leakage by measuring extracellular ATP at 4 times MIC measured at 1 hr post dose by luciferase reporter gene assay. In kind it is functional, Mycobacterium tuberculosis variant bovis BCG.
Regarding `COc1c(OCCCCN2CCOCC2)cc2oc3cc(OCCCCN4CCOCC4)c(CC=C(C)C)c(O)c3c(=O)c2c1CC=C(C)C`, the Activity was 25.4%.

The test system is the same in the next test. In words: Antimycobacterial activity against Mycobacterium bovis BCG ATCC 35734 assessed as ATP leakage by measuring extracellular ATP at 4 times MIC measured at 6 hrs post dose by luciferase reporter gene assay. It is filed as functional, Mycobacterium tuberculosis variant bovis BCG.
In the case of `COc1c(OCCCCN2CCOCC2)cc2oc3cc(OCCCCN4CCOCC4)c(CC=C(C)C)c(O)c3c(=O)c2c1CC=C(C)C`, the Activity was found to be 62.8%.

The test system is the same in another test. The experiment in a line: Antimycobacterial activity against Mycobacterium bovis BCG ATCC 35734 assessed as ATP leakage by measuring extracellular ATP at 0.5 times MIC measured at 3 hrs post dose by luciferase reporter gene assay. It is filed as functional, Mycobacterium tuberculosis variant bovis BCG.
As for `COc1c(OCCCCN2CCOCC2)cc2oc3cc(OCCCCN4CCOCC4)c(CC=C(C)C)c(O)c3c(=O)c2c1CC=C(C)C`, the Activity is 8.6%.

The next test has the same test system. The experiment in a line: Antimycobacterial activity against Mycobacterium bovis BCG ATCC 35734 assessed as ATP leakage by measuring intracellular ATP at 0.5 times MIC measured at 9 hrs post dose by luciferase reporter gene assay. In kind it is functional, Mycobacterium tuberculosis variant bovis BCG.
Consider `COc1c(OCCCCN2CCOCC2)cc2oc3cc(OCCCCN4CCOCC4)c(CC=C(C)C)c(O)c3c(=O)c2c1CC=C(C)C`, for which the Activity was 92.7%.

The next test has the same test system. The experiment in a line: Antimycobacterial activity against Mycobacterium bovis BCG ATCC 35734 assessed as ATP leakage by measuring extracellular ATP at 1 MIC measured at 3 hrs post dose by luciferase reporter gene assay. It is filed as functional, Mycobacterium tuberculosis variant bovis BCG.
On to `COc1c(OCCCCN2CCOCC2)cc2oc3cc(OCCCCN4CCOCC4)c(CC=C(C)C)c(O)c3c(=O)c2c1CC=C(C)C`, for which the Activity came to 7.7%.

The test system is the same in the next test. The experiment in a line: Antimycobacterial activity against Mycobacterium bovis BCG ATCC 35734 assessed as ATP leakage by measuring intracellular ATP at 2 times MIC measured at 6 hrs post dose by luciferase reporter gene assay. It is filed as functional, Mycobacterium tuberculosis variant bovis BCG.
For `COc1c(OCCCCN2CCOCC2)cc2oc3cc(OCCCCN4CCOCC4)c(CC=C(C)C)c(O)c3c(=O)c2c1CC=C(C)C`, the Activity is 72.6%.

The test system is the same in another test. The experiment in a line: Antimycobacterial activity against Mycobacterium bovis BCG ATCC 35734 assessed as ATP leakage by measuring intracellular ATP at 2 times MIC measured at 1 hr post dose by luciferase reporter gene assay. It is filed as functional, Mycobacterium tuberculosis variant bovis BCG.
Turning to `COc1c(OCCCCN2CCOCC2)cc2oc3cc(OCCCCN4CCOCC4)c(CC=C(C)C)c(O)c3c(=O)c2c1CC=C(C)C`, the Activity worked out at 83.3%.
